The results in this text go back to PubChem BioAssay (NCI).

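The compound was tested at five concentrations on cells cultured in 96-well plates, with a 48-hour exposure period. At the GI50, growth is halved. TGI is the concentration that stops growth completely.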

Test systems include MOLT-4 leukemia; RPMI-8226 leukemia; RXF 393 renal; SF-539 CNS; SK-MEL-28 melanoma; SNB-75 CNS; TK-10 renal; U251 CNS; UACC-257 melanoma.
What all share (experiment): inhibition of tumour cell growth, NCI panel, 48 h

In the case of `C=C(Cl)/C(=C\Cl)CCC(Br)C(C)C` (centres undefined), the TGI in the assay with MOLT-4 leukemia, with RPMI-8226 leukemia, in the assay with RXF 393 renal, with SF-539 CNS, with SK-MEL-28 melanoma and in the assay with SNB-75 CNS was over 100 µM in each case. In addition, the TGI in the assay on TK-10 renal, in the assay with U251 CNS and in the assay with UACC-257 melanoma was over 100 µM throughout.
Regarding `COc1ccc(/C(=N/O)c2ccccc2-c2nc3ccccc3c(=O)n2-c2ccc(S(=O)(=O)Nc3ncccn3)cc2)cc1C`, the TGI amounted to 23.8 µM in the assay with MOLT-4 leukemia; 42.9 µM with RPMI-8226 leukemia; 19.8 µM with RXF 393 renal; 27.2 µM with SF-539 CNS; 23 µM in the assay with SK-MEL-28 melanoma; 26.6 µM in the assay on SNB-75 CNS. For the same molecule, the TGI in the assay on TK-10 renal is over 31.6 µM; in the assay with U251 CNS, 22.9 µM; with UACC-257 melanoma, 30.5 µM.
For `O=C(NC(Cc1c[nH]c2ccccc12)C(=O)O)/C(=C/c1ccccc1O)NC(=O)c1ccccc1` (centres undefined), the TGI in the assay with MOLT-4 leukemia was over 100 µM; in the assay on RPMI-8226 leukemia it was over 100 µM; in the assay on RXF 393 renal it was over 100 µM; in the assay on SF-539 CNS, 40.6 µM; in the assay with SK-MEL-28 melanoma it was over 100 µM; in the assay with SNB-75 CNS, 38.5 µM. For the same molecule, the TGI in the assay with TK-10 renal, with U251 CNS and with UACC-257 melanoma was over 100 µM throughout.
`CCCCCCCCCC[C@H](O)[C@H]1CC[C@H]([C@H]2CC[C@H]([C@H](O)CC[C@H](O)CCCCCCC[C@@H](O)CC3=C[C@H](C)OC3=O)O2)O1`: the GI50 in the assay on MOLT-4 leukemia is 19.9 µM; in the assay on SK-MEL-28 melanoma it was over 100 µM; in the assay with U251 CNS it was over 100 µM. In addition, the TGI in the assay with MOLT-4 leukemia was 80.1 µM; in the assay on RPMI-8226 leukemia, 10.5 µM; with RXF 393 renal it was 88 µM; in the assay with SF-539 CNS, over 100 µM; in the assay on SK-MEL-28 melanoma, over 100 µM; with SNB-75 CNS, 79.7 µM. Also, the TGI with TK-10 renal, in the assay on U251 CNS and in the assay with UACC-257 melanoma was over 100 µM each time.
In the case of `CSCCC(NCc1c(O)ccc2c(-c3ccccc3)cc(=O)oc12)C(=O)O` (centres undefined), the TGI in the assay with MOLT-4 leukemia, with RPMI-8226 leukemia, with RXF 393 renal, in the assay with SF-539 CNS, in the assay with SK-MEL-28 melanoma and in the assay on SNB-75 CNS was over 100 µM each time. The TGI in the assay with TK-10 renal, in the assay on U251 CNS and in the assay on UACC-257 melanoma was over 100 µM in each case.
Turning to `CCC[C@H]1C(=O)N=C(N)N1C(=O)OCc1ccccc1`, the TGI with MOLT-4 leukemia, in the assay with RPMI-8226 leukemia, in the assay with RXF 393 renal, in the assay on SF-539 CNS, in the assay on SK-MEL-28 melanoma and in the assay with SNB-75 CNS was over 100 µM each time. Also, the TGI with TK-10 renal, in the assay on U251 CNS and in the assay with UACC-257 melanoma was over 100 µM throughout.
For `Oc1ccc(-c2nnc3sc(-c4ccc(F)cc4)nn23)cc1`, the GI50 with MOLT-4 leukemia is 33.6 µM; in the assay with RPMI-8226 leukemia, 39 µM; with RXF 393 renal, 15.6 µM; in the assay on SF-539 CNS it was 36.5 µM; in the assay on SK-MEL-28 melanoma it was over 100 µM; in the assay with SNB-75 CNS it was 22.8 µM. The GI50 in the assay with TK-10 renal was 69.8 µM; with U251 CNS, 17.3 µM; in the assay with UACC-257 melanoma it was over 100 µM. Besides, the TGI in the assay with MOLT-4 leukemia is over 100 µM; in the assay on RPMI-8226 leukemia, over 100 µM; in the assay on RXF 393 renal, 38.2 µM; with SF-539 CNS, over 100 µM; in the assay with SK-MEL-28 melanoma, over 100 µM; with SNB-75 CNS, 43.3 µM. Also, the TGI in the assay with TK-10 renal is over 100 µM; in the assay on U251 CNS, 41.9 µM; in the assay on UACC-257 melanoma, over 100 µM.
Consider `O=[N+]([O-])C(=C(N1CCCCC1)N1CCCCC1)/C(Cl)=C(\Cl)Br`, for which the TGI with MOLT-4 leukemia was determined as 57.3 µM; in the assay on RPMI-8226 leukemia, 44.2 µM; with RXF 393 renal, 62.9 µM; with SF-539 CNS it was 69.2 µM; with SK-MEL-28 melanoma, 41.4 µM; in the assay on SNB-75 CNS, 34.4 µM. For the same molecule, the TGI in the assay on TK-10 renal amounted to 72 µM; with U251 CNS, 56.3 µM; in the assay with UACC-257 melanoma, 61.6 µM.
`CC(=O)N/N=C1/NN(C(C)=O)C2(S1)C(=O)Nc1ccc(Br)cc12` (centres undefined): the TGI in the assay with MOLT-4 leukemia, in the assay with RPMI-8226 leukemia, in the assay on RXF 393 renal, in the assay with SF-539 CNS, with SK-MEL-28 melanoma and in the assay on SNB-75 CNS was over 100 µM each time. Moreover, the TGI with TK-10 renal, in the assay on U251 CNS and with UACC-257 melanoma was over 100 µM in each case.
Regarding `COc1ccc(N[C@H](CSc2ccc(C)cc2)c2ccc(F)cc2)cc1`, the TGI with MOLT-4 leukemia, in the assay on RPMI-8226 leukemia, in the assay with RXF 393 renal, with SF-539 CNS, with SK-MEL-28 melanoma and with SNB-75 CNS was over 100 µM in each case. The TGI with TK-10 renal, in the assay with U251 CNS and in the assay on UACC-257 melanoma was over 100 µM throughout.
Turning to `O=c1cc(/C=C/c2ccc(O)c(O)c2)oc(/C=C/c2ccc(O)c(O)c2)c1`, the TGI in the assay with MOLT-4 leukemia was 19.9 µM; in the assay on RPMI-8226 leukemia it was over 27.4 µM; in the assay with RXF 393 renal it was 9.12 µM; with SF-539 CNS, 6.73 µM; in the assay with SK-MEL-28 melanoma it was 31.6 µM; in the assay with SNB-75 CNS, 15.3 µM. Moreover, the values for the TGI in the assay on TK-10 renal, in the assay with U251 CNS and with UACC-257 melanoma were 19.4 µM, 9.57 µM and 17.8 µM, respectively.
`CCOC1CC(=O)c2c(Br)sc(Br)c21` (centres undefined): the TGI in the assay on MOLT-4 leukemia was found to be 35.1 µM; in the assay with RPMI-8226 leukemia it was 49.6 µM; in the assay with RXF 393 renal, 35.5 µM; with SF-539 CNS, 69.5 µM; with SK-MEL-28 melanoma, 39.5 µM; in the assay with SNB-75 CNS, 35.7 µM. For the same molecule, the results for the TGI in the assay with TK-10 renal, in the assay with U251 CNS and with UACC-257 melanoma were 46.4 µM, 33.1 µM and 32.2 µM, respectively.
For the molecule `COc1cc2c(cc1OCCCCOc1cc(-c3ccc(F)cc3)nc(C)n1)N=C[C@@H]1CCCN1C2=O`, the TGI with MOLT-4 leukemia came to 0.279 µM; in the assay with RPMI-8226 leukemia it was 0.36 µM; with RXF 393 renal, 3.22 µM; in the assay with SF-539 CNS it was 2.31 µM; in the assay with SK-MEL-28 melanoma it was 2.81 µM; in the assay on SNB-75 CNS it was 17.8 µM. Also, the values for the TGI with TK-10 renal, in the assay with U251 CNS and in the assay on UACC-257 melanoma were 0.487 µM, 2.55 µM and 1.88 µM, respectively.
